In patent publication US20260209234A1, “SUBSTITUTED DIHYDROPYRROLO[3,4-D]PYRIMIDINE COMPOUNDS AND THEIR USE IN TREATING MEDICAL CONDITIONS” (Karuna Therapeutics, Inc., priority 2022, published 2026):

Columns and labels:
human M4 receptor = target: T1, human M4 receptor (Homo sapiens, UniProt P08173); assay: M4 GTPγS PAM assay; assay type: biochemical; conditions: membranes of CHO-K1 cells stably expressing human M4; EC20 acetylcholine 40 nM; 35S-GTP
T1 construct: expressed in transfected cells
T1 sequence (P08173 1-479): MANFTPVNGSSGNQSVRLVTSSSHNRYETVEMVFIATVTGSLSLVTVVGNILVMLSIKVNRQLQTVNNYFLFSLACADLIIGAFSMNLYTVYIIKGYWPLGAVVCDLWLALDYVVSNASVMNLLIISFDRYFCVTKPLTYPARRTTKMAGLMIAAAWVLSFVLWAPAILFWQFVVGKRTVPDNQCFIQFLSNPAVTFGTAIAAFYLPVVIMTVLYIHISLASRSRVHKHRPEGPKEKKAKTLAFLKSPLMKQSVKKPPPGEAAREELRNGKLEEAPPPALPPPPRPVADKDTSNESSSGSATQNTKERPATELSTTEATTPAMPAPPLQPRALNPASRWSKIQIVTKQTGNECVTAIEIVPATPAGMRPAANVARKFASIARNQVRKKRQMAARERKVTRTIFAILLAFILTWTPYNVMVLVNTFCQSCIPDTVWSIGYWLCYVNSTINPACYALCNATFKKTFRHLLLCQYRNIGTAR
Summary of the method: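 CHO-K1 membranes stably expressing human M4, preincubated with compound and 0.1 μM GDP (final) in 20 mM HEPES, 10 mM MgCl2, 100 mM NaCl, pH 7.4, then EC20 acetylcholine (40 nM final). 35S-GTPγS binding 1 h at room temperature, filtration and scintillation counting.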

rM4 receptors = target: T2, rM4 receptors (Rattus norvegicus, UniProt P08485); assay: Rat M4 PAM pERK assay; assay type: cell-based; conditions: CHO cells expressing rM4; EC20 of acetylcholine (10 nM final); TR-FRET
T2 construct: expressed in transfected cells; host or cells: CHO cells
T2 sequence (P08485 1-478): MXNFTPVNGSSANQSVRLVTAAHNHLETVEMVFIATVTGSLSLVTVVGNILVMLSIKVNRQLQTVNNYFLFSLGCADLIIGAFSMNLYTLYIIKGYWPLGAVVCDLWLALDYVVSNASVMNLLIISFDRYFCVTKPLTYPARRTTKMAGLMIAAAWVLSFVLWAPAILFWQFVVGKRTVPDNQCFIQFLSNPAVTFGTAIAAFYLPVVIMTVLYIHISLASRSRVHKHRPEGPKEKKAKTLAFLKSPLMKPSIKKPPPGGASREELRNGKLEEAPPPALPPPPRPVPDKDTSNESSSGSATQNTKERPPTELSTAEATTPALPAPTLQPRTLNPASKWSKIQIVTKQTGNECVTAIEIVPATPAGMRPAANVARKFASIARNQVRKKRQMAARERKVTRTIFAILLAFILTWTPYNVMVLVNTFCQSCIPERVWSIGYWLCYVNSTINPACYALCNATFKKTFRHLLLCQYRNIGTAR

hM4 receptors = target: T3, hM4 receptors (Homo sapiens, UniProt P08173); assay: Human M4 PAM pERK assay; assay type: cell-based; conditions: CHO cells expressing hM4; EC20 of acetylcholine (10 nM final); TR-FRET
T3 construct: expressed in transfected cells; host or cells: CHO cells
T3 sequence (P08173 1-479): T1 sequence (P08173 1-479)

EC50 (human M4 receptor) [µM] | EC50 (rM4 receptors) [µM] | EC50 (hM4 receptors) [µM] | Compound
0.5 to 2 | ≥ 2 | ≥ 2 | COc1nc(C)nc2c1C(C)N(C(=O)CC1CN(c3ccc(C#N)cc3)C1)C2 (single isomer, unassigned) [Compound I-57, 4-(3-(2-(4-Methoxy-2,5-dimethyl-5,7-dihydro-6H-pyrrolo[3,4-d]pyrimidin-6-yl)-2-oxoethyl)azetidin-1-yl)benzonitrile]
0.1 to 0.5 | 0.5 to 2 | 0.1 to 0.5 | COc1nc(C)nc2c1CN(C(=O)CC1CN(c3ccnc(C(F)(F)F)c3)C1)C2C (single isomer, unassigned) [Compound I-62, 1-(4-Methoxy-2,7-dimethyl-5,7-dihydro-6H-pyrrolo[3,4-d]pyrimidin-6-yl)-2-(1-(2-(trifluoromethyl)pyridin-4-yl)azetidin-3-yl)ethan-1-one]
≥ 2 | ≥ 2 | ≥ 2 | COc1nc(C#N)nc2c1C(C)N(C(=O)CC1CN(c3ccnc(C4CC4)c3)C1)C2 (single isomer, unassigned) [Compound I-11, 6-(2-(1-(2-Cyclopropylpyridin-4-yl)azetidin-3-yl)acetyl)-4-methoxy-5-methyl-6,7-dihydro-5H-pyrrolo[3,4-d]pyrimidine-2-carbonitrile]
0.5 to 2 | ≥ 2 | 0.5 to 2 | CCOc1nc(C)nc2c1CN(C(=O)CC1CN(c3ccnc(C(F)(F)F)c3)C1)C2 [Compound I-46, 1-(4-Ethoxy-2-methyl-5,7-dihydro-6H-pyrrolo[3,4-d]pyrimidin-6-yl)-2-(1-(2-(trifluoromethyl)pyridin-4-yl)azetidin-3-yl)ethan-1-one]
0.1 to 0.5 | 0.5 to 2 | 0.1 to 0.5 | COc1nc(C)nc2c1CN(C(=O)CC1CN(c3ccnc(C(F)(F)F)c3)C1)C2 [Compound I-43, 1-(4-Methoxy-2-methyl-5,7-dihydro-6H-pyrrolo[3,4-d]pyrimidin-6-yl)-2-(1-(2-(trifluoromethyl)pyridin-4-yl)azetidin-3-yl)ethan-1-one]
0.5 to 2 | ≥ 2 | 0.1 to 0.5 | COc1nc2c(c(OC)n1)CN(C(=O)CC1CN(c3ccnc(C(F)(F)F)c3)C1)C2 [Compound I-64, 1-(2,4-Dimethoxy-5,7-dihydro-6H-pyrrolo[3,4-d]pyrimidin-6-yl)-2-(1-(2-(trifluoromethyl)pyridin-4-yl)azetidin-3-yl)ethan-1-one]
0.1 to 0.5 | 0.1 to 0.5 | ≤ 0.1 | COc1nc(C)nc2c1C(C)N(C(=O)CC1CN(c3ccc(C#N)cc3)C1)C2 (single isomer, unassigned) [Compound I-56, 4-(3-(2-(4-Methoxy-2,5-dimethyl-5,7-dihydro-6H-pyrrolo[3,4-d]pyrimidin-6-yl)-2-oxoethyl)azetidin-1-yl)benzonitrile]
0.1 to 0.5 | 0.5 to 2 | 0.1 to 0.5 | COc1nc(C)nc2c1C(C)N(C(=O)CC1CN(c3ccnc(C(F)(F)F)c3)C1)C2 (racemic) [Compound I-51, 1-(4-Methoxy-2,5-dimethyl-5,7-dihydro-6H-pyrrolo[3,4-d]pyrimidin-6-yl)-2-(1-(2-(trifluoromethyl)pyridin-4-yl)azetidin-3-yl)ethan-1-one]
≤ 0.1 | 0.5 to 2 | ≤ 0.1 | COc1nc(C#N)nc2c1C(C)N(C(=O)CC1CN(c3ccnc(OC4CC4)c3)C1)C2 (single isomer, unassigned) [Compound I-14, 6-(2-(1-(2-Cyclopropoxypyridin-4-yl)azetidin-3-yl)acetyl)-4-methoxy-5-methyl-6,7-dihydro-5H-pyrrolo[3,4-d]pyrimidine-2-carbonitrile]
0.5 to 2 | 0.1 to 0.5 | ≤ 0.1 | COc1nc(C#N)nc2c1C(C)N(C(=O)CC1CN(c3cccnc3)C1)C2 (single isomer, unassigned) [Compound I-8, 4-Methoxy-5-methyl-6-(2-(1-(pyridin-3-yl)azetidin-3-yl)acetyl)-6,7-dihydro-5H-pyrrolo[3,4-d]pyrimidine-2-carbonitrile]
0.5 to 2 | 0.5 to 2 | 0.1 to 0.5 | COc1nc(C#N)nc2c1C(C)N(C(=O)CC1CN(c3ccnc(C(F)(F)F)c3)C1C)C2 (single isomer, unassigned) [Compound I-38, 4-Methoxy-5-methyl-6-(2-(2-methyl-1-(2-(trifluoromethyl)pyridin-4-yl)azetidin-3-yl)acetyl)-6,7-dihydro-5H-pyrrolo[3,4-d]pyrimidine-2-carbonitrile]
≥ 2 | ≥ 2 | ≥ 2 | COc1nc(C#N)nc2c1C(C)N(C(=O)CC1CN(c3cccc(F)c3F)C1)C2 (single isomer, unassigned) [Compound I-20, 6-(2-(1-(2,3-Difluorophenyl)azetidin-3-yl)acetyl)-4-methoxy-5-methyl-6,7-dihydro-5H-pyrrolo[3,4-d]pyrimidine-2-carbonitrile]
≤ 0.1 | 0.5 to 2 | ≤ 0.1 | COc1nc(C#N)nc2c1CN(C(=O)CC1CN(c3ccnc(C(F)(F)F)c3)C1)C2 [Compound I-2, 4-Methoxy-6-(2-(1-(2-(trifluoromethyl)pyridin-4-yl)azetidin-3-yl)acetyl)-6,7-dihydro-5H-pyrrolo[3,4-d]pyrimidine-2-carbonitrile]
≥ 2 | ≥ 2 | 0.1 to 0.5 | COc1cc(N2CC(CC(=O)N3Cc4nc(C#N)nc(OC)c4C3C)C2)cc(C(F)(F)F)n1 (stereo not drawn) [Compound I-31, 4-Methoxy-6-(2-(1-(2-methoxy-6-(trifluoromethyl)pyridin-4-yl)azetidin-3-yl)acetyl)-5-methyl-6,7-dihydro-5H-pyrrolo[3,4-d]pyrimidine-2-carbonitrile]
≥ 2 | ≥ 2 | ≥ 2 | COc1nc(C#N)nc2c1C(C)N(C(=O)CC1CN(c3cnnc(C(F)(F)F)c3)C1)C2 (single isomer, unassigned) [Compound I-24, 4-Methoxy-5-methyl-6-(2-(1-(6-(trifluoromethyl)pyridazin-4-yl)azetidin-3-yl)acetyl)-6,7-dihydro-5H-pyrrolo[3,4-d]pyrimidine-2-carbonitrile]
0.5 to 2 | ≥ 2 | ≥ 2 | COc1nc(C#N)nc2c1C(C)N(C(=O)CC1CN(c3ccnc(OC4CC4)c3)C1)C2 (single isomer, unassigned) [Compound I-13, 6-(2-(1-(2-Cyclopropoxypyridin-4-yl)azetidin-3-yl)acetyl)-4-methoxy-5-methyl-6,7-dihydro-5H-pyrrolo[3,4-d]pyrimidine-2-carbonitrile]
≤ 0.1 | 0.1 to 0.5 | 0.1 to 0.5 | COc1nc2c(c(OC)n1)C(C)N(C(=O)CC1CN(c3ccnc(C(F)(F)F)c3)C1)C2 (single isomer, unassigned) [Compound I-68, 1-(2,4-Dimethoxy-5-methyl-5,7-dihydro-6H-pyrrolo[3,4-d]pyrimidin-6-yl)-2-(1-(2-(trifluoromethyl)pyridin-4-yl)azetidin-3-yl)ethan-1-one]
0.5 to 2 | 0.1 to 0.5 | ≤ 0.1 | COc1nc2c(c(OC)n1)C(C)N(C(=O)CC1CN(c3ccc(C#N)cc3)C1)C2 (single isomer, unassigned) [Compound I-66, 4-(3-(2-(2,4-dimethoxy-5-methyl-5,7-dihydro-6H-pyrrolo[3,4-d]pyrimidin-6-yl)-2-oxoethyl)azetidin-1-yl)benzonitrile]
